Measured values reported in patent US8192962B2, “Processes for detecting toxic substances” (Daikin Industries, Ltd., priority 2001, dated 2012).

Tested on: Genes belonging to other category
Assay: DNA chip mRNA expression in yeast, genes belonging to other category (Table 9)
Type: cell-based, Saccharomyces cerevisiae S288C
Method in brief: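 Value is the scanned fluorescence intensity ratio of exposed versus chemical-free cells. Log-phase S288C yeast in YPD at 25° C. received one toxic substance for two hours, dosed to slow growth without killing; Cy3/Cy5-labeled cDNA from oligo-dT-purified mRNA was hybridized to a whole-genome chip at 65° C.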

## CCCCCCCCCCCCOS(=O)(=O)[O-].[Na+] [(18), sodium lauryl sulfate]
Yeast gene YMR219W
  The level of expressed mRNA in the presence of chemical substance/The level of expressed mRNA in the absence of chemical substance: 0.9
Yeast gene YMR226C
  The level of expressed mRNA in the presence of chemical substance/The level of expressed mRNA in the absence of chemical substance: 2.0
Yeast gene YMR275C
  The level of expressed mRNA in the presence of chemical substance/The level of expressed mRNA in the absence of chemical substance: 0.7
Yeast gene YMR276W
  The level of expressed mRNA in the presence of chemical substance/The level of expressed mRNA in the absence of chemical substance: 0.7
Yeast gene YMR297W
  The level of expressed mRNA in the presence of chemical substance/The level of expressed mRNA in the absence of chemical substance: 1.4
Yeast gene YMR314W
  The level of expressed mRNA in the presence of chemical substance/The level of expressed mRNA in the absence of chemical substance: 1.6
Yeast gene YNL006W
  The level of expressed mRNA in the presence of chemical substance/The level of expressed mRNA in the absence of chemical substance: 1.3
Yeast gene YNL007C
  The level of expressed mRNA in the presence of chemical substance/The level of expressed mRNA in the absence of chemical substance: 1.0
Yeast gene YNL036W
  The level of expressed mRNA in the presence of chemical substance/The level of expressed mRNA in the absence of chemical substance: 1.9
Yeast gene YNL093W
  The level of expressed mRNA in the presence of chemical substance/The level of expressed mRNA in the absence of chemical substance: 3.1
Yeast gene YNL196C
  The level of expressed mRNA in the presence of chemical substance/The level of expressed mRNA in the absence of chemical substance: 1.2
Yeast gene YNL333W
  The level of expressed mRNA in the presence of chemical substance/The level of expressed mRNA in the absence of chemical substance: 1.1
Yeast gene YNL335W
  The level of expressed mRNA in the presence of chemical substance/The level of expressed mRNA in the absence of chemical substance: 1.1
Yeast gene YNR006W
  The level of expressed mRNA in the presence of chemical substance/The level of expressed mRNA in the absence of chemical substance: 1.2
Yeast gene YNR010W
  The level of expressed mRNA in the presence of chemical substance/The level of expressed mRNA in the absence of chemical substance: 2.3
Yeast gene YNR069C
  The level of expressed mRNA in the presence of chemical substance/The level of expressed mRNA in the absence of chemical substance: 0.9
Yeast gene YOL005C
  The level of expressed mRNA in the presence of chemical substance/The level of expressed mRNA in the absence of chemical substance: 1.2
Yeast gene YOL013C
  The level of expressed mRNA in the presence of chemical substance/The level of expressed mRNA in the absence of chemical substance: 1.4
Yeast gene YOL016C
  The level of expressed mRNA in the presence of chemical substance/The level of expressed mRNA in the absence of chemical substance: 3.8
Yeast gene YOL152W
  The level of expressed mRNA in the presence of chemical substance/The level of expressed mRNA in the absence of chemical substance: 1.2
Yeast gene YOL164W
  The level of expressed mRNA in the presence of chemical substance/The level of expressed mRNA in the absence of chemical substance: 1.3
Yeast gene YOR003W
  The level of expressed mRNA in the presence of chemical substance/The level of expressed mRNA in the absence of chemical substance: 1.1
Yeast gene YOR036W
  The level of expressed mRNA in the presence of chemical substance/The level of expressed mRNA in the absence of chemical substance: 1.7
Yeast gene YOR117W
  The level of expressed mRNA in the presence of chemical substance/The level of expressed mRNA in the absence of chemical substance: 0.9
Yeast gene YOR124C
  The level of expressed mRNA in the presence of chemical substance/The level of expressed mRNA in the absence of chemical substance: 1.0
Yeast gene YOR132W
  The level of expressed mRNA in the presence of chemical substance/The level of expressed mRNA in the absence of chemical substance: 1.6
Yeast gene YOR133W
  The level of expressed mRNA in the presence of chemical substance/The level of expressed mRNA in the absence of chemical substance: 1.2
Yeast gene YOR157C
  The level of expressed mRNA in the presence of chemical substance/The level of expressed mRNA in the absence of chemical substance: 1.2
Yeast gene YOR181W
  The level of expressed mRNA in the presence of chemical substance/The level of expressed mRNA in the absence of chemical substance: 0.6
Yeast gene YOR185C
  The level of expressed mRNA in the presence of chemical substance/The level of expressed mRNA in the absence of chemical substance: 1.1
Yeast gene YOR198C
  The level of expressed mRNA in the presence of chemical substance/The level of expressed mRNA in the absence of chemical substance: 1.5
Yeast gene YOR259C
  The level of expressed mRNA in the presence of chemical substance/The level of expressed mRNA in the absence of chemical substance: 1.5
Yeast gene YOR261C
  The level of expressed mRNA in the presence of chemical substance/The level of expressed mRNA in the absence of chemical substance: 1.9
Yeast gene YOR265W
  The level of expressed mRNA in the presence of chemical substance/The level of expressed mRNA in the absence of chemical substance: 1.2
Yeast gene YOR288C
  The level of expressed mRNA in the presence of chemical substance/The level of expressed mRNA in the absence of chemical substance: 1.6
Yeast gene YOR355W
  The level of expressed mRNA in the presence of chemical substance/The level of expressed mRNA in the absence of chemical substance: 0.9
Yeast gene YOR383C
  The level of expressed mRNA in the presence of chemical substance/The level of expressed mRNA in the absence of chemical substance: 1.1
Yeast gene YPL001W
  The level of expressed mRNA in the presence of chemical substance/The level of expressed mRNA in the absence of chemical substance: 1.2
Yeast gene YPL089C
  The level of expressed mRNA in the presence of chemical substance/The level of expressed mRNA in the absence of chemical substance: 1.1
Yeast gene YPL109C
  The level of expressed mRNA in the presence of chemical substance/The level of expressed mRNA in the absence of chemical substance: 1.2
Yeast gene YPL124W
  The level of expressed mRNA in the presence of chemical substance/The level of expressed mRNA in the absence of chemical substance: 1.2
Yeast gene YPL149W
  The level of expressed mRNA in the presence of chemical substance/The level of expressed mRNA in the absence of chemical substance: 2.9
Yeast gene YPL154C
  The level of expressed mRNA in the presence of chemical substance/The level of expressed mRNA in the absence of chemical substance: 2.0
Yeast gene YPL220W
  The level of expressed mRNA in the presence of chemical substance/The level of expressed mRNA in the absence of chemical substance: 1.1
Yeast gene YPR066W
  The level of expressed mRNA in the presence of chemical substance/The level of expressed mRNA in the absence of chemical substance: 1.2
Yeast gene YPR086W
  The level of expressed mRNA in the presence of chemical substance/The level of expressed mRNA in the absence of chemical substance: 1.2
Yeast gene YPR103W
  The level of expressed mRNA in the presence of chemical substance/The level of expressed mRNA in the absence of chemical substance: 1.5
Yeast gene YPR108W
  The level of expressed mRNA in the presence of chemical substance/The level of expressed mRNA in the absence of chemical substance: 1.3
